We go through 10 molecules from patent US20240261417A1, “SOS1 DEGRADING AGENT AND PREPARATION METHOD THEREFOR AND APPLICATION THEREOF” (SHANGHAI LEADINGTAC PHARMACEUTICAL CO. LTD., priority 2021, published 2024).

Where only a bound is given, the exact number is not on record here.

As usually defined, the DC50 is the concentration giving 50% degradation. As a reminder, the Dmax is the greatest extent of degradation seen.

The experiment deals with T1, SOS1 protein (Homo sapiens, UniProt Q07889).
T1 sequence (Q07889 1-1333): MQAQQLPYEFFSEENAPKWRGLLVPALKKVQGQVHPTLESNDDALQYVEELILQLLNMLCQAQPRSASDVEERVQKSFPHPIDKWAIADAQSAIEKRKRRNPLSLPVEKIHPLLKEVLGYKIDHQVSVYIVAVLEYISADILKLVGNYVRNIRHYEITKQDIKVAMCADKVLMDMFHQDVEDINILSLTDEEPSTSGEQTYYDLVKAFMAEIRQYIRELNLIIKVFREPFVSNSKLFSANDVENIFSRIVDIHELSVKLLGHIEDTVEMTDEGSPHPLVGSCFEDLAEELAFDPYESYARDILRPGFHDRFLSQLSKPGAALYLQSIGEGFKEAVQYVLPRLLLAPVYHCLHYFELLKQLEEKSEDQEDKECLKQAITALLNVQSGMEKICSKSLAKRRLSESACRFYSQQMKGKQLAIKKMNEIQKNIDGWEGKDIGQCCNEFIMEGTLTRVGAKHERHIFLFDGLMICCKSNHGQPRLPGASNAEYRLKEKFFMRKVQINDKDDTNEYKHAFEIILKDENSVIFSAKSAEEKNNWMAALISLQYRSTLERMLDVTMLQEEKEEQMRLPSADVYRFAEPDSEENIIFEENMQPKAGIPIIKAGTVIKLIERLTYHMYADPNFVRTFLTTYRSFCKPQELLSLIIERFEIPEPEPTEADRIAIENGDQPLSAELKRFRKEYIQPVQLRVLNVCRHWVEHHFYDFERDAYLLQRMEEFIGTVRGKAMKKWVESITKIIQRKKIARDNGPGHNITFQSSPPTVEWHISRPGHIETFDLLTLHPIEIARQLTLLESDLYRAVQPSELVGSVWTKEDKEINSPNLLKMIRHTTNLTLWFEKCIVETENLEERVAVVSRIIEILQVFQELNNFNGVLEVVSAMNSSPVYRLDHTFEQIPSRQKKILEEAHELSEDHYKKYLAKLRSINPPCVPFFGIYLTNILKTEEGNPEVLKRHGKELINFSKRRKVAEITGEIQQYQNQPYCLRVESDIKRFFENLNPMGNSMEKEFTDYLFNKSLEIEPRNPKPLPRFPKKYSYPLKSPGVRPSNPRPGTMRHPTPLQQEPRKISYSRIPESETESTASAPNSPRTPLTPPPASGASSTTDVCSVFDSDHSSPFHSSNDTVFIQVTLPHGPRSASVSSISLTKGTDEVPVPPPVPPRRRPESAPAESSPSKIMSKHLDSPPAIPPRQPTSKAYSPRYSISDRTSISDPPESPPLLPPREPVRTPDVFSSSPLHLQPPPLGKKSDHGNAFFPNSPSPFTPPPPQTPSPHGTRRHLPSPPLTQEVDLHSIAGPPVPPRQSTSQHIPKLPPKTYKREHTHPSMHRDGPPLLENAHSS
Briefly: SOS1 degradation assay (Western blot), NCI-H358 cells. It counts as cell-based. Also noted: The degradation of SOS1 by the compounds was investigated on KRAS G12C mutant human non-small cell lung cancer cells NCI-H358; host or cells: NCI-H358 (human cancer cell lines). Particulars: SOS1 degradation, NCI-H358 cells, 24 h, Western blot; for DC50: read-out: NCI-H358 (G12C) DC50; for Dmax: read-out: NCI-H358 (G12C) Dmax. As to the method: The specific procedures were as follows:
0.95 mL of cells were seeded into each well of a 24-well cell culture plate to achieve a cell density of 5×10^5 cells/well; the cell plate was incubated in an incubator at 37° C. with 5% CO2 overnight. Then 50 μL of the compound solution after dilution was added to each of the wells with the corresponding cells, so that the final concentration of the compound was in a range of 0.03-3000 nM. […] After dosing, the cell plate was incubated in an incubator at 37° C. with 5% CO2 for 24 h. […] After the plate was left to stand on ice for 30 min, the protein lysate in each well was transferred to a 1.5 mL centrifuge tube and centrifuged at 15000 g for 20 min at 4° C. The cell lysate supernatant after centrifugation was cryopreserved at −80° C. for testing and was used for determining the degradation level of the SOS1 protein by a WB method. The concentration of total protein in the cell lysate supernatant was determined using the BCA Protein Quantification Kit (Tiangen, PA115-02).
The concentration of total protein in the cell lysate was determined by BCA. The total protein was adjusted to 0.5 μg/μL with PBS and 5× SDS-PAGE protein loading buffer (Beyotime, P0015L), incubated in a water bath at 100° C. for 15 min, incubated in an ice bath on ice for 5 min, centrifuged at 14000 g for 1 min at 4° C., and mixed well as a loading sample for WB. Protein electrophoresis was performed on a precast gel (KeyGEN, KGMGO10W15) with a loading volume of 10 μL (total protein: 5 μg) using a Tris-MOPS-SDS running solution (Adamas, P1598253) at a constant voltage of 120 V for 55 min. After the electrophoresis, the protein on the gel strip was transferred to a PVDF membrane at a constant current of 250 mA for 65 min. After the membrane transfer, the membrane was incubated in 1× QuickBlock blocking buffer (Beyotime, P0235) for 30 min at room temperature. […] The protein map was subjected to gray value analysis by the chemiluminescence imaging system from Clinx. […] Then the degradation rate was calculated by comparing the gray correction value with the gray correction value of the control group. Then nonlinear curve fitting was performed by GraphPad Prism 8 in the logarithmic concentration-inhibition rate to obtain the DC50 and Dmax values of the compounds.
In general terms: A western blot detects proteins with antibodies after separation by electrophoresis.

Regarding `COc1cc2nc(C)nc(N[C@H](C)c3cc(N)cc(C(F)(F)F)c3)c2cc1C1CCC(C(=O)N2CCC(CCOCC3CCN(C(=O)c4ccc5c(c4)C(=O)N(C4CCC(=O)NC4=O)C5=O)CC3)CC2)CC1` (stereo partly drawn) [Example 39, 5-(4-((2-(1-((1S,4S)-4-(4-(((R)-1-(3-amino-5-(trifluoromethyl)phenyl)ethyl)amino)-7-methoxy-2-methylquinazolin-6-yl)cyclohexane-1-carbonyl)piperidin-4-yl)ethoxy)methyl)piperidine-1-carbonyl)-2-(2,6-dioxopiperidin-3-yl)isoindoline-1,3-dione], the DC50 is under 0.05 µM and the Dmax fell in the range of 80 to 100%.
On to `COc1cc2nc(C)nc(N[C@H](C)c3cc(-c4c(Cl)cccc4CN(C)C)cs3)c2cc1[C@H]1CC[C@H](C(=O)N2CCC(CCOCC3CCN(c4ccc5c(c4)C(=O)N(C4CCC(=O)NC4=O)C5=O)CC3)CC2)CC1` (some centres unmarked) [Example 41], for which the DC50 fell in the range of 0.1 to 0.5 µM and the Dmax lay in the range of 80 to 100%.
In the case of `COc1cc2nc(C)nc(N[C@H](C)c3cc(N)cc(C(F)(F)F)c3)c2cc1[C@H]1CC[C@H](C(=O)N2CCC(CCCN(C)C3CCN(Cc4ccc(Cl)c(N5CCC(=O)NC5=O)c4)CC3)CC2)CC1` [Example 38, 1-(5-((4-((3-(1-((1R,4R)-4-(4-(((R)-1-(3-amino-5-(trifluoromethyl)phenyl)ethyl)amino)-7-methoxy-2-methylquinazolin-6-yl)cyclohexane-1-carbonyl)piperidin-4-yl)propyl)(methyl)amino)piperidin-1-yl)methyl)-2-chlorophenyl)dihydropyrimidine-2,4(1H,3H)-dione], the DC50 was 1 to 10 µM and the Dmax is under 30%.
For `Cc1nc(N[C@H](C)c2cc(N)cc(C(F)(F)F)c2)c2cc(-c3ccn(CCCN(C)CC4CCC5(CC4)CCN(C(=O)c4ccc(Cl)c(N6CCC(=O)NC6=O)c4)CC5)c(=O)c3)c(C)cc2n1` [Example 42, (R)-1-(5-(9-(((3-(4-(4-((1-(3-amino-5-(trifluoromethyl)phenyl)ethyl)amino)-2,7-dimethylquinazolin-6-yl)-2-oxopyridin-1(2H)-yl)propyl)(methyl)amino)methyl)-3-azaspiro[5.5]undecane-3-carbonyl)-2-chlorophenyl)dihydropyrimidine-2,4(1H,3H)-dione] the same measures were 1 to 10 µM and 30 to 50%.
Consider `COc1cc2nc(C)nc(N[C@H](C)c3cc(N)cc(C(F)(F)F)c3)c2cc1[C@H]1CC[C@H](C(=O)N2CCC(CCC3CCN(C(=O)c4ccc(Cl)c(N5CCC(=O)NC5=O)c4)CC3)CC2)CC1` [Example 15, 1-(5-(4-(2-(1-((1R,4R)-4-(4-(((R)-1-(3-amino-5-(trifluoromethyl)phenyl)ethyl)amino)-7-methoxy-2-methylquinazolin-6-yl)cyclohexane-1-carbonyl)piperidin-4-yl)ethyl)piperidine-1-carbonyl)-2-chlorophenyl)dihydropyrimidine-2,4(1H,3H)-dione], for which the DC50 lay within 1 to 10 µM and the Dmax was under 30%.
For `Cc1nc(N[C@H](C)c2cc(N)cc(C(F)(F)F)c2)c2cc(C3CCN(CC(=O)NCCC4CCC5(CC4)CCN(C(=O)c4ccc(Cl)c(N6CCC(=O)NC6=O)c4)CC5)CC3)ccc2n1` [Example 77, (R)-2-(4-(4-((1-(3-amino-5-(trifluoromethyl)phenyl)ethyl)amino)-2-methylquinazolin-6-yl)piperidin-1-yl)-N-(2-(3-(4-chloro-3-(2,4-dioxotetrahydropyrimidin-1(2H)-yl)benzoyl)-3-azaspiro[5.5]undecan-9-yl)ethyl)acetamide], the DC50 is 0.5 to 1 µM and the Dmax is 80 to 100%.
The corresponding values for `COc1cc2nc(C)nc(N[C@H](C)c3cccc(C(F)(F)F)c3F)c2cc1[C@H]1CC[C@H](C(=O)N2CCN(CC3CCC4(CC3)CCN(C(=O)c3ccc(Cl)c(N5CCC(=O)NC5=O)c3)CC4)CC2)CC1` [Example 16, 1-(2-chloro-5-(9-((4-((1R,4R)-4-(4-(((R)-1-(2-fluoro-3-(trifluoromethyl)phenyl)ethyl)amino)-7-methoxy-2-methylquinazolin-6-yl)cyclohexane-1-carbonyl)piperazin-1-yl)methyl)-3-azaspiro[5.5]undecane-3-carbonyl)phenyl)dihydropyrimidine-2,4(1H,3H)-dione] are 0.5 to 1 µM and 50 to 80%.
Turning to `[2H]C1([2H])CC(OCC2CCN(C(=O)c3ccc(Cl)c(N4CCC(=O)NC4=O)c3)CC2)CC([2H])([2H])N1C(=O)[C@H]1CC[C@H](c2cc3c(N[C@H](C)c4cc(N)cc(C(F)(F)F)c4)nc(C)nc3cc2OC)CC1` [Example 40, 1-(5-(4-(((1-((1R,4R)-4-(4-(((R)-1-(3-amino-5-(trifluoromethyl)phenyl)ethyl)amino)-7-methoxy-2-methylquinazolin-6-yl)cyclohexane-1-carbonyl)piperidin-4-yl-2,2,6,6-d4)oxy)methyl)piperidine-1-carbonyl)-2-chlorophenyl)dihydropyrimidine-2,4(1H,3H)-dione], the DC50 fell in the range of 1 to 10 µM and the Dmax was under 30%.
The corresponding values for `COc1cc2nc(C)nc(N[C@H](C)c3cc(N)cc(C(F)(F)F)c3)c2cc1[C@H]1CC[C@H](C(=O)N2CCN(CC3CCN(C(=O)c4ccc(Cl)c(N5CCC(=O)NC5=O)c4)CC3)CC2)CC1` [Example 13, 1-(5-(4-((4-((1R,4R)-4-(4-(((R)-1-(3-amino-5-(trifluoromethyl)phenyl)ethyl)amino)-7-methoxy-2-methylquinazolin-6-yl)cyclohexane-1-carbonyl)piperazin-1-yl)methyl)piperidine-1-carbonyl)-2-chlorophenyl)dihydropyrimidine-2,4(1H,3H)-dione] are 1 to 10 µM and 30 to 50%.
Regarding `COc1cc2nc(C)nc(N[C@H](C)c3cc(N)cc(C(F)(F)F)c3)c2cc1OC1CCN(C(=O)C2CCN(CC3CCC4(CC3)CCN(C(=O)c3ccc(Cl)c(N5CCC(=O)NC5=O)c3)CC4)CC2)CC1` [Example 5, (R)-1-(5-(9-((4-(4-((4-((1-(3-amino-5-(trifluoromethyl)phenyl)ethyl)amino)-7-methoxy-2-methylquinazolin-6-yl)oxy)piperidine-1-carbonyl)piperidin-1-yl)methyl)-3-azaspiro[5.5]undecane-3-carbonyl)-2-chlorophenyl)dihydropyrimidine-2,4(1H,3H)-dione], the DC50 fell in the range of 0.05 to 0.1 µM and the Dmax lay in the range of 80 to 100%.
